Assay type in all cases: functional
In experiment [1] the test system is Mycobacterium tuberculosis. In words: Antimicrobial activity against Mycobacterium tuberculosis H37Rv harboring medium under-expression of BPL by broth microdilution assay.
The test system of experiment [2] is Mycobacterium tuberculosis. In words: Antimicrobial activity against Mycobacterium tuberculosis H37Rv harboring ultra-under-expression of BPL by broth microdilution assay. (In general: In broth dilution the organism is exposed to a series of concentrations in liquid medium.)
Experiment [3] relates to Mycobacterium tuberculosis. In words: Antimicrobial activity against Mycobacterium tuberculosis H37Rv harboring medium over-expression of BPL by broth microdilution assay.
For experiment [4], the system named is Mycobacterium tuberculosis. In words: Antimicrobial activity against Mycobacterium tuberculosis H37Rv harboring high over-expression of BPL by broth microdilution assay.

In brackets after ≈: the same amount, converted by molar mass.

A word on the MIC50: it is the lowest concentration that inhibits either 50% of growth or 50% of the strains tested, depending on the study. Low readings indicate higher susceptibility, high ones lower susceptibility.

Regarding `Nc1ncnc2c1ncn2[C@@H]1O[C@H](CNS(=O)(=O)[N-]C(=O)NCCC[C@@H]2SC[C@@H]3NC(=O)N[C@@H]32)[C@@H](O)[C@H]1O.[Na+]`, the MIC50 in experiment [1] is 0.89 µM; in experiment [2] it was 0.28 µM; in experiment [3], greater than 100 µM; in experiment [4] it was greater than 100 µM.

Consider `Nc1ncnc2c1ncn2[C@@H]1O[C@H](CNS(=O)(=O)[N-]C(=O)CCCC[C@@H]2SC[C@@H]3NC(=O)N[C@@H]32)[C@@H](O)[C@H]1O.[Na+]`, for which the MIC50 in experiment [1] was 0.14 µM; in experiment [2], 0.047 µM; in experiment [3], 11 µM; in experiment [4], 16 µM.

In the case of `Nc1cccc2c1ncn2CCCCNS(=O)(=O)NC(=O)CCCC[C@@H]1SC[C@@H]2NC(=O)N[C@@H]21`, the MIC50 in experiment [1] worked out at 18 µM (≈ 9.17 µg/mL); in experiment [2] it was 16 µM (≈ 8.15 µg/mL).

As for `CC(CCC[C@@H]1SC[C@@H]2NC(=O)N[C@@H]21)C(=O)[N-]S(=O)(=O)NC[C@H]1O[C@@H](n2cnc3c(N)ncnc32)[C@H](O)[C@@H]1O.[Na+]` (some centres undefined), the MIC50 in experiment [1] is 3.7 µM; in experiment [2], 0.79 µM; in experiment [3] it was greater than 100 µM; in experiment [4], greater than 100 µM.
